The source of these data is patent US10975037B2 (priority 2018, dated 2021).

Assay [1] has as its target human RORγt ligand binding domain (RORγt LBD) (Homo sapiens (Human), UniProt P51449). The experiment in a line: RORγt ThermoFluor® assay (thermal shift binding). As to conditions: ThermoFluor® Assay, Kd. As for the experimental part: This approach is applicable to a wide variety of systems, and rigorous in theoretical interpretation through quantitation of equilibrium binding constants (KD).
The shift in the melting point described as a ΔTm is proportional to the concentration and affinity of the ligand.
RORγt ThermoFluor® Assay Construct
Reference wells contained RORγt without compounds, and the assay conditions were as follows: • 0.065 mg/mL RORγt • 60 μM 1,8-ANS • 100 mM Hepes, pH 7.0 • 10 mM NaCl • 2.5 mM GSH • 0.002% Tween-20
Project compounds were arranged in a pre-dosed mother plate (Greiner Bio-one) wherein compounds are serially diluted in 100% DMSO by 1:2 from a high concentration of 10 mM over 12 columns within a series (column 12 is a reference well containing DMSO, no compound). The compounds were robotically dispensed directly into assay plates (1×=46 nL) using a Hummingbird capillary liquid handling instrument (Digilab). Following compound dispense, protein and dye in buffer was added to achieve the final assay volume of 3 μL, followed by 1 μL of silicone oil.
A general note: In DSF a fluorescence change marks the thermal transition of the protein.

For another assay, the target named is full-length human RORγt (Homo sapiens (Human), UniProt P51449). The experiment in a line: RORγt (full-length human) reporter assay, conditions A or B, HEK293T cells. The format is cell-based. The conditions noted are these: for IC50: RORγt (FL) Reporter Assay A or B, IC50, HEK293T cells; for inhibition at 6 µM: read-out: RORγt (FL) Reporter Assay A or B, % inhibition @ 6 μM, 6 μM compound concentration; for inhibition at 2 µM: 2 μM compound concentration; for inhibition at 0.67 µM: 0.67 μM compound concentration (footnote ****). As for the experimental part: RORγt (Full-Length Human) Reporter Assay:
(§1) HEK293T cells were plated at 35,000 per well in 96-well plate in medium of DMEM with 10% FBS. […] After overnight (16 to 20 hours) incubation, media were removed and cells were lysed with 50 L Glo Lysis Buffer (Promega) for 10-15 minutes followed by 10 minute incubation with 50 μL Dual Glo reagent (Promega) at room temperature. Firefly luciferase luminescence was measured using a BMG Pherastar plate reader. To each well, 50 μL Stop and Glo reagent was added and incubated for 10 minutes at room temperature. Renilla luminescence was measured using a BMG Pherastar plate reader. To calculate the effect of compounds on RORγt activity, firefly values were normalized against values of DMSO only and values of reference compound at saturating concentration, then further normalized against Renilla signals. IC50s were generated by plotting final Renilla normalized data against compound concentration and percent inhibition was calculated against DMSO control.
as §1, with “at 8750 cells” for “at 35,000”, “in 384-well” for “in 96-well”, “with 20” for “with 50”, “well, 20” for “well, 50”

Where [2] appears, read: HEK-293T, read-out: RORγt (FL) Reporter Assay A or B, % inhibition.

full-length human RORγt, sequence (P51449 other isoform, or with tags, fused parts or gaps): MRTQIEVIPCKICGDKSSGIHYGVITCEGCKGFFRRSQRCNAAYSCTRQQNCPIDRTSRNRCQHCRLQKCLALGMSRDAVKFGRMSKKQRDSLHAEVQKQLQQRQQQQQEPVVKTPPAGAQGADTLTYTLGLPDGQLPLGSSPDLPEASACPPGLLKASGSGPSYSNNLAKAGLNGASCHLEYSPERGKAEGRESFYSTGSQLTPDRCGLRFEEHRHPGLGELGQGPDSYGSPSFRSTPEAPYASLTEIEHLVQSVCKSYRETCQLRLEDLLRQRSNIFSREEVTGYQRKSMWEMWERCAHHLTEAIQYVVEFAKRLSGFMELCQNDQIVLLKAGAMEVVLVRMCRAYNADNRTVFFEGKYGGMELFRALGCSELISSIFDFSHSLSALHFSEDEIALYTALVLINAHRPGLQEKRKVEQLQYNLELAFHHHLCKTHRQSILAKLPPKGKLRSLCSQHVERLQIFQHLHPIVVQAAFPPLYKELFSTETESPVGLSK
human RORγt ligand binding domain (RORγt LBD), sequence (P51449 other isoform, or with tags, fused parts or gaps): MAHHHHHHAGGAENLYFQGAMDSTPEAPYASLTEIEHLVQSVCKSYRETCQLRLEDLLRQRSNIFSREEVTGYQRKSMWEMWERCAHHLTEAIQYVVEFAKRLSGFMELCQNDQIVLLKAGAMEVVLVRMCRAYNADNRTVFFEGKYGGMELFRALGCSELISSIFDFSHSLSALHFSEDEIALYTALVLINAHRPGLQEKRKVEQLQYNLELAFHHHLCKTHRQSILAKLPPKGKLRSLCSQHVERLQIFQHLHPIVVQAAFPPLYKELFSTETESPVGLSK

For `CCn1nc(C(=O)NC[C@@H]2CC[C@@H](S(C)(=O)=O)CO2)c(Cl)c1-c1ccc(CC(C)(C)C(F)(F)F)cc1OC(F)F` (racemic) [Example 14, 4-Chloro-5-(2-(difluoromethoxy)-4-(3,3,3-trifluoro-2,2-dimethylpropyl)phenyl)-1-ethyl-N-(((2RS,5SR)-5-(methylsulfonyl)tetrahydro-2H-pyran-2-yl)methyl)-1H-pyrazole-3-carboxamide], in assay [1], the Kd was determined as 0.14 nM. Further, the inhibition at […] on full-length human RORγt (HEK-293T, 0.22 μM compound concentration (footnote *******), read-out: RORγt (FL) Reporter Assay A or B, % inhibition) was found to be 99%. Moreover, on full-length human RORγt, the IC50 came to 1.6 nM.

As for `CCn1nc(C(=O)NC[C@H]2CC[C@@H](S(C)(=O)=O)CO2)c(Cl)c1-c1ccc(N[C@H](C)C(F)(F)F)cc1OC` (relative stereo) [Example 17, 4-Chloro-1-ethyl-5-(2-methoxy-4-(((R)-1,1,1-trifluoropropan-2-yl)amino)phenyl)-N-(((2R*,5R*)-5-(methylsulfonyl)tetrahydro-2H-pyran-2-yl)methyl)-1H-pyrazole-3-carboxamide], the Kd in assay [1] is 1300 nM. For the same molecule, the inhibition at 6 µM at full-length human RORγt (HEK-293T) was 67%. Besides, the IC50 on full-length human RORγt was 2200 nM.

For the molecule `CCn1nc(C(=O)NC[C@@H]2CC[C@H](S(C)(=O)=O)CO2)c(Cl)c1-c1ccc(N[C@H](C)C(F)(F)F)cc1OC` (relative stereo) [Example 18, 4-Chloro-1-ethyl-5-(2-methoxy-4-(((R)-1,1,1-trifluoropropan-2-yl)amino)phenyl)-N-(((2S*,5S*)-5-(methylsulfonyl)tetrahydro-2H-pyran-2-yl)methyl)-1H-pyrazole-3-carboxamide], the Kd in assay [1] amounted to 240 nM. The inhibition at 6 µM on full-length human RORγt (HEK-293T) was found to be 102%. Further, at full-length human RORγt, the IC50 is 830 nM.

Turning to `CCn1nc(C(=O)NC[C@]2(CO)CC[C@@H](S(C)(=O)=O)CC2)c(Cl)c1-c1ccc(N[C@H](C)C(F)(F)F)cc1OC` (relative stereo) [Example 93, 4-Chloro-1-ethyl-N-(((1s*,4S*)-1-(hydroxymethyl)-4-(methylsulfonyl)cyclohexyl)methyl)-5-(2-methoxy-4-(((R)-1,1,1-trifluoropropan-2-yl)amino)phenyl)-1H-pyrazole-3-carboxamide], the Kd in assay [1] came to 11 nM. The inhibition at 2 µM on full-length human RORγt (setting [2]) turned out to be 96%. Besides, the IC50 on full-length human RORγt came to 30 nM.

For `CCOC(=O)[C@]1(CNC(=O)c2nn(CC)c(-c3ccc(N[C@H](C)C(F)(F)F)cc3OC)c2Cl)CC[C@H](S(C)(=O)=O)CC1` (relative stereo) [Example 94, Ethyl (1s*,4S*)-1-((4-chloro-1-ethyl-5-(2-methoxy-4-(((R)-1,1,1-trifluoropropan-2-yl)amino)phenyl)-1H-pyrazole-3-carboxamido)methyl)-4-(methylsulfonyl)cyclohexane-1-carboxylate], in assay [1], the Kd stood at 0.22 nM. Also, the inhibition at 6 µM at full-length human RORγt (HEK-293T) stood at 101%. On full-length human RORγt, this molecule yielded a half-inhibitory concentration (IC50) of 6 nM.

On to `CCOC(=O)[C@]1(CNC(=O)c2nn(CC)c(-c3ccc(N[C@H](C)C(F)(F)F)cc3OC)c2Cl)CC[C@@H](S(C)(=O)=O)CC1` (relative stereo) [Example 95, Ethyl (1r*,4R*)-1-((4-chloro-1-ethyl-5-(2-methoxy-4-(((R)-1,1,1-trifluoropropan-2-yl)amino)phenyl)-1H-pyrazole-3-carboxamido)methyl)-4-(methylsulfonyl)cyclohexane-1-carboxylate], for which the dissociation constant (Kd) in assay [1] turned out to be 110 nM. Besides, the inhibition at 2 µM at full-length human RORγt (setting [2]) is 76%. The molecule further displayed an IC50 against full-length human RORγt of 380 nM.

Take `CCn1nc(C(=O)NC[C@]2(C(=O)O)CC[C@H](S(C)(=O)=O)CC2)c(Cl)c1-c1ccc(N[C@H](C)C(F)(F)F)cc1OC` (relative stereo) [Example 96, (1r*,4R*)-1-((4-Chloro-1-ethyl-5-(2-methoxy-4-(((R)-1,1,1-trifluoropropan-2-yl)amino)phenyl)-1H-pyrazole-3-carboxamido)methyl)-4-(methylsulfonyl)cyclohexane-1-carboxylic Acid]: the Kd in assay [1] was found to be 25000 nM. Further, the inhibition at 6 µM at full-length human RORγt (HEK-293T) is -10%. In addition, the IC50 against full-length human RORγt was > 6000 nM.

Regarding `CCn1nc(C(=O)NC[C@]2(C(=O)O)CC[C@@H](S(C)(=O)=O)CC2)c(Cl)c1-c1ccc(N[C@H](C)C(F)(F)F)cc1OC` (relative stereo) [Example 97, (1s*,4S*)-1-((4-Chloro-1-ethyl-5-(2-methoxy-4-(((R)-1,1,1-trifluoropropan-2-yl)amino)phenyl)-1H-pyrazole-3-carboxamido)methyl)-4-(methylsulfonyl)cyclohexane-1-carboxylic Acid], the Kd in assay [1] was 180 nM. In addition, the inhibition at 6 µM at full-length human RORγt (HEK-293T) was 94%. The IC50 against full-length human RORγt was 730 nM.

On to `Cn1nc(C(=O)NC[C@@]2(O)CC[C@H](S(C)(=O)=O)C[C@@H]2O)c(Cl)c1-c1ccc(CC(C)(C)C(F)(F)F)cc1OC(F)F` (relative stereo) [Example 153, 4-Chloro-5-(2-(difluoromethoxy)-4-(3,3,3-trifluoro-2,2-dimethylpropyl)phenyl)-N-(((1S*,2S*,4S*)-1,2-dihydroxy-4-(methylsulfonyl)cyclohexyl)methyl)-1-methyl-1H-pyrazole-3-carboxamide], for which the dissociation constant Kd in assay [1] came to 9 nM. At full-length human RORγt (HEK-293T, 3 μM compound concentration (footnote *), read-out: RORγt (FL) Reporter Assay A or B, % inhibition), the inhibition at 3 µM worked out at 85%. In addition, on full-length human RORγt, the IC50 stood at 49 nM.

In the case of `CCn1nc(C(=O)NC[C@H]2CC[C@H](S(C)(=O)=O)CC2)c(Cl)c1-c1ccc(C[C@@H](C)C(F)(F)F)cc1OC` (single isomer, unassigned) [Example 1, 4-Chloro-1-ethyl-5-(2-methoxy-4-((R*)-3,3,3-trifluoro-2-methylpropyl)phenyl)-N-(((1r,4R)-4-(methylsulfonyl)cyclohexyl)methyl)-1H-pyrazole-3-carboxamide], the Kd in assay [1] came to 0.6 nM. The inhibition at 0.67 µM on full-length human RORγt (setting [2]) is 99%. The molecule further displayed a 50% inhibitory concentration (IC50) on full-length human RORγt of 6 nM.

Turning to `CCn1nc(C(=O)NC[C@]2(O)CC[C@@H](S(C)(=O)=O)CC2)c(Cl)c1-c1ccc(CCC(F)(F)F)cc1C(F)(F)F` [Example 170, 4-Chloro-1-ethyl-N-(((1s,4s)-1-hydroxy-4-(methylsulfonyl)cyclohexyl)methyl)-5-(2-(trifluoromethyl)-4-(3,3,3-trifluoropropyl)phenyl)-1H-pyrazole-3-carboxamide], at full-length human RORγt (setting [2]), the inhibition at 2 µM came to 5%. For the same molecule, the 50% inhibitory concentration (IC50) against full-length human RORγt was > 2000 nM.

`[2H]C([2H])([2H])Oc1cc(CC(C)(C)C(F)(F)F)ccc1-c1c(Cl)c(C(=O)NC[C@]2(O)CC[C@@H](S(C)(=O)=O)CC2)nn1CC` [Example 192, 4-Chloro-1-ethyl-N-(((1s,4s)-1-hydroxy-4-(methylsulfonyl)cyclohexyl)methyl)-5-(2-(methoxy-d3)-4-(3,3,3-trifluoro-2,2-dimethylpropyl)phenyl)-1H-pyrazole-3-carboxamide]: the inhibition at 2 µM on full-length human RORγt (setting [2]) was 96%.

In the case of `[2H]C([2H])([2H])Oc1cc(CC(C)(C)C(F)(F)F)ccc1-c1c(Cl)c(C(=O)NC[C@H]2CC[C@H](S(C)(=O)=O)CC2)nn1CC` [Example 193, 4-Chloro-1-ethyl-5-(2-(methoxy-d3)-4-(3,3,3-trifluoro-2,2-dimethylpropyl)phenyl)-N-(((1r,4r)-4-(methylsulfonyl)cyclohexyl)methyl)-1H-pyrazole-3-carboxamide], the inhibition at 0.67 µM on full-length human RORγt (setting [2]) is 93%.

`CCn1nc(C(=O)NC[C@H]2CC[C@H](S(C)(=O)=O)CC2)c(Cl)c1-c1ccc(OCC2CC2(F)F)cc1OC` (some centres unmarked) [Example 209, 4-Chloro-5-(4-((2,2-difluorocyclopropyl)methoxy)-2-methoxyphenyl)-1-ethyl-N-(((1r,4r)-4-(methylsulfonyl)cyclohexyl)methyl)-1H-pyrazole-3-carboxamide]: the inhibition at 2 µM on full-length human RORγt (setting [2]) came out at 82%.

One may read the Kd as the free concentration of one partner at which half of the binding sites on the other are occupied at equilibrium, for simple one-to-one binding. The term inhibition denotes the change of the read-out against control, counted positive when it falls. By IC50 is commonly meant the concentration that gives 50% inhibition. A higher IC50 goes with weaker potency.
